Source: patent US20040063661A1, “Treatment of statin side effects” (priority 2000, published 2004)
Where “and” joins values, the source holds several entries; their conditions need not be identical. Identical values can stand only once. Marks after values point to notes of the source that are not given here.

Columns and labels:
Type in all cases: in vivo, human
muscle pain = experiment: Case report: Coenzyme Q10 in a patient with unexplained muscle pain and viral infections (Example 1)
From the text: The patient had suffered for a number of years from unexplained muscle pain which started in the legs and gradually spread to other skeletal muscles. During the worst of the symptoms, the patient was unable to raise their arms above their head and was unable to drive a car. Walking was also difficult. […] The patient was eventually diagnosed as suffering from a number of viral infections: cytomegalovirus (CMV), Epstein-Barr virus (EBV) and hepatitis A. The patient was started on a regimen of 150 mg per day of Coenzyme Q10. […] The improvement was reported as permanent provided that the patient kept taking Q10.

chronic fatigue syndrome = experiment: Case report: self assessed well being, day to day tasks and muscle pain in a chronic fatigue syndrome patient on Q10 (Example 2); settings: for Feeling of Well Being / Absence of Muscle Pain / Heavy Work (1 hour) / Light Work/Walking / Sedentary Work / Work: teacher / Wellness Score (out of 60): Q10 2×50 mg per day; for Feeling of Well Being: self rated 0-10 (10 = best); for Absence of Muscle Pain: self rated 0-10 (10 = complete absence of pain); for Wellness Score (out of 60): sum of the six self ratings
Description: The patient had suffered for a number of years from chronic fatigue syndrome. The condition was severe enough such that they were unable to pursue their teaching career and day to day tasks were generally performed with a general sense of fatigue and muscle pain. Muscle pain was generally controlled with over the counter (ie. non-prescription) analgesics containing 500 mg paracetamol and 8 mg codeine phosphate, 2-4 tablets per day. Table 1 provides a summary of the patient's self assessed levels of general sense of well being, ability to perform day to day tasks and level of (or relative absence of) muscle pain during a dosing regimen of 2×50 mg per day of Q10(50 mg taken each at breakfast and dinner). Levels were rated by the patient on a scale of 0-10, with 0 representing severe incapacity or pain and 10 representing the complete absence of pain or fatigue/excellent performance. FIG. 1 depicts the self assessed (absence of) pain levels for the patient, over a period of 30 days, on a scale of […], where 0 is severe pain and 10 relates to an absence of pain (wellness). On day 1 the patient commenced taking 100 mg of Q10 per day until day 10 when the dosage was increased to 200 mg per day

[1] = system: statin induced muscle pain; experiment: Pilot clinical study Q10: McGill Pain Questionnaire (PRI, PPI); settings: for PRI (Pain Rating Index), first score / PRI (Pain Rating Index), second score: patients on statin therapy; for PRI (Pain Rating Index), first score / PRI (Pain Rating Index), second score / PPI (Present Pain Intensity): one line per patient
From the text: (§1) Table 2 outlines data for four patients (numbered #1-#4) undergoing statin therapy for treatment of hypercholesterolemia and who had reported suffering from varying levels of muscular pain and fatigue. This study is ongoing, but the results below follow the study with these four patients from week minus1 (WK(-1)) to week plus 4 (WK(+4)). Patients were either contacted or attended the clinic at weeks -1, 0, +1, +2 and +4. At the clinic on the first week (WK(-1)) details of the patients' statin medication were recorded and daily doses were noted. Patients were also scored for pain using the McGill Pain Questionnaire (Melzack, R., 1975 “The McGill Pain Questionnaire: Major Properties and Scoring Methods”. Pain 1:277-299, the disclosure of which is included herein in its entirety by way of reference) scales for Pain Rating Index (PRI) and Present Pain Intensity (PPI). In the PRI index, which comprises two scores, higher scores indicate increasing levels of pain. In the PPI index present pain is given a score of 0 to 5, where 0 represents no pain and 5 represents excruciating pain. Patients were also scored at WK(-1) for fatigue using the Fatigue Impact Scale (Fisk, J. D. et al, 1994, “Measuring the functional impact of fatigue: Initial Validation of the Fatigue Impact Scale”, Clinical Infectious Disease, 18 (Suppl 1):[…]-83, the disclosure of which is included herein in its entirety by way of reference). Questionnaires to determine PRI, PPI and FIS scores were conducted thereafter at weeks +1, +2 and +4. At weeks +1 and +2 the patients were contacted by telephone and were asked to mail their self assessment questionnaires to the clinic. Commencing at WK(0) and continuing through the study the patients were asked to take a daily dose of 300 mg of Coenzyme Q10 (Q10), which was administered as […] sof gel capsules (commercially available from R. P. Scherer), morning and evening.

statin induced fatigue = experiment: Pilot clinical study Q10: Fatigue Impact Scale (FIS); settings: for FIS (Fatigue Impact Scale): one line per patient
From the text: as §1

[2] = Pilot clinical study Q10: blood Q10 level (patient compliance); settings: one line per patient
Description: (§2) Commencing at WK(0) and continuing through the study the patients were asked to take a daily dose of 300 mg of Coenzyme Q10 (Q10), which was administered as […] sof gel capsules (commercially available from R. P. Scherer), morning and evening.

creatine kinase = experiment: Pilot clinical study Q10: blood creatine kinase concentration (measure of muscle trauma)
Description: as §2

alanine aminotransferase = experiment: Pilot clinical study Q10: blood alanine aminotransferase concentration (measure of liver damage)
Description: as §2

[3] = system: serum cholesterol, HDL-cholesterol or LDL-cholesterol and triglyceride levels; experiment: Pilot clinical study Q10: serum lipids levels under statin therapy; settings: patients #1-#4; 300 mg Q10 daily; WK(0) vs WK(+4)
Description: as §2

[4] = 150 mg per day of Coenzyme Q10, within several days
[5] = Day 1, self rated 0-10 (10 = excellent performance)
[6] = Day 2, self rated 0-10 (10 = excellent performance)
[7] = Day 3, self rated 0-10 (10 = excellent performance)
[8] = Day 4, self rated 0-10 (10 = excellent performance)
[9] = Day 5, self rated 0-10 (10 = excellent performance)
[10] = Week 2, self rated 0-10 (10 = excellent performance)
[11] = Week 12, self rated 0-10 (10 = excellent performance)
[12] = 300 mg Q10 daily to WK(+4), a few patients
[13] = WK(+1), 300 mg Q10 daily from WK(0)
[14] = WK(+2), 300 mg Q10 daily from WK(0)
[15] = WK(+4), 300 mg Q10 daily from WK(0)

Q10 (blood level) ([2]; WK(0), baseline before Q10): 0.59 µg/mL and 0.46 µg/mL and 1.39 µg/mL
Structure (SMILES): COC1=C(OC)C(=O)C(C/C=C(\C)CC/C=C(\C)CC/C=C(\C)CC/C=C(\C)CC/C=C(\C)CC/C=C(\C)CC/C=C(\C)CC/C=C(\C)CC/C=C(\C)CCC=C(C)C)=C(C)C1=O [Q10, Coenzyme Q10]
general sense of well being (patient report) (muscle pain; [4]): general sense of well being has improved
muscle pain (patient report) (muscle pain; [4]): muscle pain had subsided noticeably
pain after the patient recommenced the Q10 treatment (muscle pain; treatment recommenced): the pain diminished within a short period
muscle pain after the patient stopped taking the Q10 (muscle pain; treatment stopped on one occasion): the muscle pain returned
self assessed (absence of) pain levels, FIG. 1 (chronic fatigue syndrome; 30 day period, 100 mg of Q10 per day from day 1, 200 mg per day from day 10): increasing absence of muscle pain
Feeling of Well Being (chronic fatigue syndrome; Day 1): 4
Absence of Muscle Pain (chronic fatigue syndrome; Day 1, patient required 2x analgesic tablets): 3*
Heavy Work (1 hour) (chronic fatigue syndrome; [5]): 0
Light Work/Walking (chronic fatigue syndrome; [5]): 4
Sedentary Work (chronic fatigue syndrome; [5]): 3
Work: teacher (chronic fatigue syndrome; [5]): 0
Wellness Score (out of 60) (chronic fatigue syndrome; Day 1): 14
Feeling of Well Being (chronic fatigue syndrome; Day 2): 4
Absence of Muscle Pain (chronic fatigue syndrome; Day 2, patient required 2 × 2 (4) analgesic tablets): 3**
Heavy Work (1 hour) (chronic fatigue syndrome; [6]): 0
Light Work/Walking (chronic fatigue syndrome; [6]): 4
Sedentary Work (chronic fatigue syndrome; [6]): 3
Work: teacher (chronic fatigue syndrome; [6]): 0
Wellness Score (out of 60) (chronic fatigue syndrome; Day 2): 14
Feeling of Well Being (chronic fatigue syndrome; Day 3): 5
Absence of Muscle Pain (chronic fatigue syndrome; Day 3): 7
Light Work/Walking (chronic fatigue syndrome; [7]): 6
Sedentary Work (chronic fatigue syndrome; [7]): 4
Work: teacher (chronic fatigue syndrome; [7]): 0
Heavy Work (1 hour) (chronic fatigue syndrome; Day 3, self rated 0-10, patient performed only ½ hour heavy work): 3***
Wellness Score (out of 60) (chronic fatigue syndrome; Day 3): 25
Feeling of Well Being (chronic fatigue syndrome; Day 4): 6
Absence of Muscle Pain (chronic fatigue syndrome; Day 4): 7
Light Work/Walking (chronic fatigue syndrome; [8]): 6
Sedentary Work (chronic fatigue syndrome; [8]): 5
Work: teacher (chronic fatigue syndrome; [8]): 0
Heavy Work (1 hour) (chronic fatigue syndrome; Day 4, self rated 0-10, patient performed only ½ hour heavy work): 3***
Wellness Score (out of 60) (chronic fatigue syndrome; Day 4): 27
Feeling of Well Being (chronic fatigue syndrome; Day 5): 7
Absence of Muscle Pain (chronic fatigue syndrome; Day 5): 7
Light Work/Walking (chronic fatigue syndrome; [9]): 7
Sedentary Work (chronic fatigue syndrome; [9]): 6
Work: teacher (chronic fatigue syndrome; [9]): 0
Heavy Work (1 hour) (chronic fatigue syndrome; Day 5, self rated 0-10, patient performed only ½ hour heavy work): 3***
Wellness Score (out of 60) (chronic fatigue syndrome; Day 5): 30
Feeling of Well Being (chronic fatigue syndrome; Week 2): 7
Absence of Muscle Pain (chronic fatigue syndrome; Week 2): 7
Heavy Work (1 hour) (chronic fatigue syndrome; [10]): 5
Light Work/Walking (chronic fatigue syndrome; [10]): 7
Sedentary Work (chronic fatigue syndrome; [10]): 7
Work: teacher (chronic fatigue syndrome; [10]): 3
Wellness Score (out of 60) (chronic fatigue syndrome; Week 2): 36
Feeling of Well Being (chronic fatigue syndrome; Week 12): 9
Absence of Muscle Pain (chronic fatigue syndrome; Week 12): 9
Heavy Work (1 hour) (chronic fatigue syndrome; [11]): 8
Light Work/Walking (chronic fatigue syndrome; [11]): 9
Sedentary Work (chronic fatigue syndrome; [11]): 9
Work: teacher (chronic fatigue syndrome; [11]): 8
Wellness Score (out of 60) (chronic fatigue syndrome; Week 12): 52
change in PRI scores (overall statement) [1, 12]: Marginal decreases
PRI (Pain Rating Index), first score [1, 13]: 22 and 0 and 48 and 19
PRI (Pain Rating Index), second score [1, 13]: 10 and 0 and 21 and 7
PPI (Present Pain Intensity) ([1]; WK(+1), 300 mg Q10 daily from WK(0), score 0 to 5): 2 and 0 and 3 and 1
PRI (Pain Rating Index), first score [1, 14]: 25 and 9 and 54 and 10
PRI (Pain Rating Index), second score [1, 14]: 11 and 6 (2×) and 23
PPI (Present Pain Intensity) ([1]; WK(+2), 300 mg Q10 daily from WK(0), score 0 to 5): 2 (3×) and 1
PRI (Pain Rating Index), first score [1, 15]: 8 and 4 and 46 and 9
PRI (Pain Rating Index), second score [1, 15]: 4 and 1 and 20 and 5
PPI (Present Pain Intensity) ([1]; WK(+4), 300 mg Q10 daily from WK(0), score 0 to 5): 2 (3×) and 1
PRI (Pain Rating Index), first score ([1]; WK(−1), baseline before Q10): 15 and 10 and 69 and 12
PRI (Pain Rating Index), second score ([1]; WK(−1), baseline before Q10): 5 (2×) and 3 and 30
PPI (Present Pain Intensity) ([1]; WK(−1), baseline before Q10, score 0 to 5 (5 = excruciating pain)): 2
change in FIS scores (overall statement) (statin induced fatigue; [12]): Marginal decreases
FIS (Fatigue Impact Scale) (statin induced fatigue; [13]): 42 and 19 and 91 and 18
FIS (Fatigue Impact Scale) (statin induced fatigue; [14]): 47 and 44 and 90 and 16
FIS (Fatigue Impact Scale) (statin induced fatigue; [15]): 43 and 6 and 90 and 16
FIS (Fatigue Impact Scale) (statin induced fatigue; WK(−1), baseline before Q10, patients on statin therapy): 48 and 39 and 104 and 15
Q10 (blood level) [2, 15]: 2.42 µg/mL and 2.49 µg/mL and 1.92 µg/mL and 2.22 µg/mL
CK (creatine kinase concentration) (creatine kinase; WK(0), baseline before Q10, normal range 0-200, one line per patient): 175 units/L and 69 units/L and 39 units/L and 160 units/L
CK (creatine kinase concentration) (creatine kinase; WK(+4), 300 mg Q10 daily from WK(0), normal range 0-200, one line per patient): 127 units/L and 78 units/L and 32 units/L and 148 units/L
ALT (alanine aminotransferase concentration) (alanine aminotransferase; WK(0), baseline before Q10, normal range 0-40, one line per patient): 31 units/L and 14 units/L and 33 units/L
ALT (alanine aminotransferase concentration) (alanine aminotransferase; WK(+4), 300 mg Q10 daily from WK(0), normal range 0-40, one line per patient): 25 units/L and 11 units/L and 19 units/L and 35 units/L
effect on statin therapy with respect to serum cholesterol, HDL-cholesterol or LDL-cholesterol and triglyceride levels [3]: did not significantly affect statin therapy
